≈ marks a conversion by molar mass, not a printed value. Calls of active or inactive are those of the source. The rule behind the calls is not given here.
Legend:
Staphylococcus aureus [1] = experiment: Antibacterial activity against Staphylococcus aureus ATCC 29213 assessed as inhibition of bacterial growth incubated for 16 to 18 hrs by microbroth dilution method; assay type: functional; settings: time 16-18 hrs, read-out: MIC100
Enterococcus faecalis [2] = experiment: Antibacterial activity against Enterococcus faecalis ATCC 29212 assessed as inhibition of bacterial growth incubated for 16 to 18 hrs by microbroth dilution method; assay type: functional; settings: time 16-18 hrs, read-out: MIC100
Escherichia coli = experiment: Antibacterial activity against Escherichia coli ATCC 25922 assessed as inhibition of bacterial growth incubated for 16 to 18 hrs by microbroth dilution method; assay type: functional; settings: time 16-18 hrs, read-out: MIC100
[3] = system: Stenotrophomonas maltophilia; experiment: Antibacterial activity against Stenotrophomonas maltophilia ATCC 17808 assessed as inhibition of bacterial growth incubated for 16 to 18 hrs by microbroth dilution method; assay type: functional; settings: time 16-18 hrs, read-out: MIC100
[4] = Hemolytic activity in sheep RBC assessed as hemolysis incubated for 1 hrs by microplate reader analysis; assay type: toxicity, cell-based, Ovis aries, Erythrocyte; settings: sheep red blood cells
Staphylococcus aureus [5] = experiment: Antibacterial activity against methicillin-resistant Staphylococcus aureus; assay type: functional
Staphylococcus aureus [6] = experiment: Antibacterial activity against methicillin-sensitive Staphylococcus aureus; assay type: functional
Streptococcus pneumoniae = experiment: Antibacterial activity against penicillin-resistant Streptococcus pneumoniae; assay type: functional
Enterococcus [7] = experiment: Antibacterial activity against vancomycin-resistant enterococcus; assay type: functional
Staphylococcus aureus [8] = experiment: Antibacterial activity against Staphylococcus aureus ATCC 29213 assessed as inhibition of bacterial growth by CLSI protocol based broth liquid microdilution method; assay type: functional
Staphylococcus aureus [9] = experiment: Antibacterial activity against methicillin-resistant Staphylococcus aureus assessed as inhibition of bacterial growth by CLSI protocol based broth liquid microdilution method; assay type: functional
Enterococcus [10] = experiment: Antibacterial activity against vancomycin-resistant enterococcus assessed as inhibition of bacterial growth by CLSI protocol based broth liquid microdilution method; assay type: functional
Enterococcus faecalis [11] = experiment: Antibacterial activity against Enterococcus faecalis assessed as inhibition of bacterial growth incubated for 3 hrs in presence of 50% plasma by dilution method; assay type: functional
[12] = Selectivity ratio of MIC for antibacterial activity against Enterococcus faecalis assessed as inhibition of bacterial growth measured immediately in presence of 50% plasma to MIC for antibacterial activity against Enterococcus faecalis assessed as inhibition of bacterial growth assessed as inhibition of bacterial growth measured after 16 to 18 hrs; assay type: functional
[13] = Selectivity ratio of MIC for antibacterial activity against Enterococcus faecalis assessed as inhibition of bacterial growth measured after 3 hrs in presence of 50% plasma to MIC for antibacterial activity against Enterococcus faecalis assessed as inhibition of bacterial growth assessed as inhibition of bacterial growth measured after 16 to 18 hrs; assay type: functional
Cell membrane = experiment: Induction of cytoplasmic membrane permeability in Enterococcus faecalis assessed as increase in fluorescence intensity at 8 times of MIC by PI staining based analysis
[14] = Cytotoxicity against human HeLa cells assessed as cell viability at 64 microg/ml incubated for 24 hrs by CCK8 assay relative to control; assay type: toxicity, cell-based; settings: at 64 µg/mL, read-out: Activity
HeLa = experiment: Cytotoxicity against human HeLa cells assessed as increase in red fluorescence at 32 microg/ml incubated for 24 hrs by calcein-AM/PI staining based fluorescence microscopic analysis; assay type: toxicity, cell-based; settings: dose 32 µg/ml

| SMILES | MIC (Staphylococcus aureus [1]) [µg/mL] | MIC (Enterococcus faecalis [2]) [µg/mL] | MIC (Escherichia coli) [µg/mL] | MIC [3] [µg/mL] | HC50 at 1 h [4] [µg/mL] | also measured |
| --- | --- | --- | --- | --- | --- | --- |
| Br.CC(=O)NC[C@H]1CN(c2ccc(N3CCN(C(=O)C[N+](C)(C)Cc4ccc([N+](=O)[O-])cc4)CC3)c(F)c2)C(=O)O1 | 128 | 128 | > 128 | > 128 | > 1280 |  |
| CC(=O)NC[C@H]1CN(c2ccc(N3CCN(C(=O)C[N+](C)(C)Cc4ccccc4)CC3)c(F)c2)C(=O)O1.[Br-] | 128 | 4 | > 128 | > 128 | > 1280 |  |
| CC(=O)NC[C@H]1CN(c2ccc(N3CCN(Cc4ccc([N+](=O)[O-])o4)CC3)c(F)c2)C(=O)O1 [RANBEZOLID] |  |  |  |  |  | MIC (Staphylococcus aureus [5]): 0.06 µg/mL (≈ 0.13 µM); MIC (Staphylococcus aureus [6]): 0.06 µg/mL (≈ 0.13 µM); MIC (Streptococcus pneumoniae): 0.06 µg/mL (≈ 0.13 µM); MIC (Enterococcus [7]): 0.06 µg/mL (≈ 0.13 µM) |
| CCC[N+](C)(C)CC(=O)N1CCN(c2ccc(N3C[C@H](CNC(C)=O)OC3=O)cc2F)CC1.[Br-] | 64 | 64 | > 128 | > 128 | > 1280 |  |
| CC(=O)NC[C@H]1CN(c2ccc(N3CCN(C(=O)CN(C)Cc4ccc(C)cc4)CC3)c(F)c2)C(=O)O1 | 16 (≈ 31.3 µM) | 2 (≈ 3.91 µM) | > 128 | > 128 | > 1280 |  |
| CC(=O)NC[C@H]1CN(c2ccc(N3CCN(C(=O)CN(C)Cc4cccc([N+](=O)[O-])c4)CC3)c(F)c2)C(=O)O1 | 8 (≈ 14.7 µM) | 2 (≈ 3.69 µM) | > 128 | > 128 | > 1280 |  |
| COc1ccc(CN(C)CC(=O)N2CCN(c3ccc(N4C[C@H](CNC(C)=O)OC4=O)cc3F)CC2)cc1 | 16 (≈ 30.3 µM) | 2 (≈ 3.79 µM) | > 128 | > 128 | > 1280 |  |
| C[C@@H](O)[C@H]1C(=O)N2C(C(=O)O)=C(S[C@@H]3CN[C@H](C(=O)N(C)C)C3)[C@H](C)[C@H]12 [MEROPENEM] |  |  | 0.031 (≈ 0.0808 µM) | 0.031 (≈ 0.0808 µM) |  |  |
| CC(=O)NC[C@H]1CN(c2ccc(N3CCN(C(=O)CN(C)Cc4cccc(Cl)c4)CC3)c(F)c2)C(=O)O1 | 8 (≈ 15 µM) | 2 (≈ 3.76 µM) | > 128 | > 128 | > 1280 |  |
| COc1ccccc1CN(C)CC(=O)N1CCN(c2ccc(N3C[C@H](CNC(C)=O)OC3=O)cc2F)CC1 | 16 (≈ 30.3 µM) | 2 (≈ 3.79 µM) | > 128 | > 128 | > 1280 |  |
| CN[C@H](CC(C)C)C(=O)N[C@H]1C(=O)N[C@@H](CC(N)=O)C(=O)N[C@H]2C(=O)N[C@H]3C(=O)N[C@H](C(=O)N[C@H](C(=O)O)c4cc(O)cc(O)c4-c4cc3ccc4O)[C@H](O)c3ccc(c(Cl)c3)Oc3cc2cc(c3O[C@@H]2O[C@H](CO)[C@@H](O)[C@H](O)[C@H]2O[C@H]2C[C@](C)(N)[C@H](O)[C@H](C)O2)Oc2ccc(cc2Cl)[C@H]1O [VANCOMYCIN] |  | 1 (≈ 0.69 µM) |  |  |  |  |
| CC(=O)NC[C@H]1CN(c2ccc(N3CCN(C(=O)CN(C)Cc4cccc(C)c4)CC3)c(F)c2)C(=O)O1 | 16 (≈ 31.3 µM) | 4 (≈ 7.82 µM) | > 128 | > 128 | > 1280 |  |
| CC(=O)NC[C@H]1CN(c2ccc(N3CCN(C(=O)CN(C)Cc4cccc(C#N)c4)CC3)c(F)c2)C(=O)O1 | 8 (≈ 15.3 µM) | 4 (≈ 7.65 µM) | > 128 | > 128 | > 1280 |  |
| CC(=O)NC[C@H]1CN(c2ccc(N3CCN(C(=O)C[N+](C)(C)Cc4ccc(C#N)cc4)CC3)c(F)c2)C(=O)O1.[Br-] | > 128 | 32 | > 128 | > 128 | > 1280 |  |
| CCCCC[N+](C)(C)CC(=O)N1CCN(c2ccc(N3C[C@H](CNC(C)=O)OC3=O)cc2F)CC1.[Br-] | > 128 | 16 | > 128 | > 128 | > 1280 |  |
| CC(=O)NC[C@H]1CN(c2ccc(N3CCN(C(=O)CN(C)Cc4ccccc4)CC3)c(F)c2)C(=O)O1 | 16 (≈ 32.2 µM) | 4 (≈ 8.04 µM) | > 128 | > 128 | > 1280 |  |
| CC(=O)NC[C@H]1CN(c2ccc(N3CCN(/N=C\c4ccc([N+](=O)[O-])o4)CC3)c(F)c2)C(=O)O1 |  |  |  |  |  | MIC (Staphylococcus aureus [8]): 0.25 µg/mL (≈ 0.527 µM); MIC (Staphylococcus aureus [9]): 1 µg/mL (≈ 2.11 µM); MIC (Enterococcus [10]): 1 µg/mL (≈ 2.11 µM) |
| CC(=O)NC[C@H]1CN(c2ccc(N3CCN(C(=O)C[N+](C)(C)Cc4ccc(C(F)(F)F)cc4)CC3)c(F)c2)C(=O)O1.[Br-] | 128 | 128 | > 128 | > 128 | > 1280 |  |
| CC[C@H](C)[C@H](NC(=O)CN)C(=O)NCC(=O)N[C@@H](C)C(=O)N[C@H](C(=O)N[C@@H](CC(C)C)C(=O)N[C@@H](CCCCN)C(=O)N[C@H](C(=O)N[C@@H](CC(C)C)C(=O)N[C@H](C(=O)N[C@H](C(=O)NCC(=O)N[C@@H](CC(C)C)C(=O)N1CCC[C@H]1C(=O)N[C@@H](C)C(=O)N[C@@H](CC(C)C)C(=O)N[C@H](C(=O)N[C@@H](CO)C(=O)N[C@@H](Cc1c[nH]c2ccccc12)C(=O)N[C@H](C(=O)N[C@@H](CCCCN)C(=O)N[C@@H](CCCNC(=N)N)C(=O)N[C@@H](CCCCN)C(=O)N[C@@H](CCCNC(=N)N)C(=O)N[C@@H](CCC(N)=O)C(=O)N[C@@H](CCC(N)=O)C(N)=O)[C@@H](C)CC)[C@@H](C)CC)[C@@H](C)O)[C@@H](C)O)C(C)C)C(C)C [MELITTIN] |  |  |  |  |  | MIC (Enterococcus faecalis [11]): 32 µg/mL; Selectivity ratio [12]: >16; Selectivity ratio [13]: >16; Activity (Cell membrane): Active; viability at 24 h, 64 microg/ml [14]: 5.2%; Activity (HeLa): Toxic |
| CC(=O)NC[C@H]1CN(c2ccc(N3CCN(C(=O)CN(C)Cc4ccc(C(F)(F)F)cc4)CC3)c(F)c2)C(=O)O1 | 16 (≈ 28.3 µM) | 2 (≈ 3.54 µM) | > 128 | > 128 | > 1280 |  |
| COc1cccc(CN(C)CC(=O)N2CCN(c3ccc(N4C[C@H](CNC(C)=O)OC4=O)cc3F)CC2)c1 | 16 (≈ 30.3 µM) | 2 (≈ 3.79 µM) | > 128 | > 128 | > 1280 |  |
| CC(=O)NC[C@H]1CN(c2ccc(N3CCN(C(=O)CN(C)Cc4cccc(Br)c4)CC3)c(F)c2)C(=O)O1 | 8 (≈ 13.9 µM) | 4 (≈ 6.94 µM) | > 128 | > 128 | > 1280 |  |
| CC[N+](C)(C)CC(=O)N1CCN(c2ccc(N3C[C@H](CNC(C)=O)OC3=O)cc2F)CC1.[Br-] | 64 | 32 | > 128 | > 128 | > 1280 |  |
| CCCCCC[N+](C)(C)CC(=O)N1CCN(c2ccc(N3C[C@H](CNC(C)=O)OC3=O)cc2F)CC1.[Br-] | 128 | 8 | > 128 | > 128 | > 1280 |  |
| CC(=O)NC[C@H]1CN(c2ccc(N3CCN(C(=O)CN(C)Cc4ccc(Cl)cc4)CC3)c(F)c2)C(=O)O1 | 16 (≈ 30.1 µM) | 2 (≈ 3.76 µM) | > 128 | > 128 | > 1280 |  |

— ChEMBL document CHEMBL6109105, “Design, synthesis and antibacterial evaluation of oxazolidinone derivatives containing N-methylglycyl or quaternary ammonium salts” (Bioorg Med Chem, 2025)
